Values quoted from earlier work as cited in patent US6613768B1, “Treatment of female arousal disorder” (Lilly ICOS LLC, priority 1999, dated 2003).
Counter-ions that a name gives are not always drawn.

Tested on: postmenopausal women with sexual dysfunction

Q: For CCCc1nn(C)c2c(=O)[nH]c(-c3cc(S(=O)(=O)N4CCN(C)CC4)ccc3OCC)nc12 [sildenafil, Sildenafil citrate], which “women with clitoral discomfort/hypersensitivity who withdrew from the study” value (of the 7 women affected) is on record?
A: Its value is 3.

Q: What about the “clitoral discomfort and hypersensitivity, number of women” value (thirty-three postmenopausal women) of the same compound?
A: Its value is 7 woman.
